Legend:
Assay type in all cases: cell-based
Details in all cases: ACV 100 μmol/l, MOI 0.01, titer 24 hpi
HSV-1 strain Kupka [1] = experiment: In vitro antiviral activity, treatment of Vero cells, plaque assay
Procedure: (§1) • A. Vero cells were seeded in 24-well plates and treated with dilutions of the ECAS 2 Dil.1:1 and Dil.1:2, either: • I. 24 hours before the infection; • II. 2 hours before the infection; • III. during the infection; • IV. 2 hours post infection; or • V. 6 hours post infection.
(§2) The cells were infected with the HSV-1 strains Kupka and ANGpath at a multiplicity of infection (MOI) of 0.01. The cells were collected 24 hours post infection (hpi) and the virus titer was determined by plaque assay. Briefly, the samples were serially diluted and plated onto one-day Vero cell-monolayers in 24- or 6-well tissue plates in duplicates. Afterwards, the cells were overlaid with 1% methylcellulose in normal growth media. 5 days post infection, the cells were fixed and stained with 2% crystal violet in 20% ethanol, and the individual plaques were counted to determine the virus titer in each sample. Samples without treatment (Mock, negative control) and samples treated with ACV (Acyclovir, 100 μmol/l, reference control) were handled in the same manner. The test was performed in two independent experiments, where each of the samples was tested in parallel wells. • B. The HSV-1 strains Kupka and ANGpath, were incubated at a MOI of 0.01 with dilutions of the ECAS 2 either Dil.1:1 or Dil.1:2, in a final volume of 100 μl for either: • I. 12 hours; • II. 8 hours; • III. 6 hours; or • IV. 2 hours.

HSV-1 strain ANGpath [2] = experiment: as above
Procedure: as §1, §2

HSV-1 strain Kupka [3] = experiment: In vitro antiviral activity, pre-incubation of virus before infection of Vero cells, plaque assay
Procedure: as §2
(§3) Then cells, which had been seeded in 24-well plates 24 hours before the infection, were infected with the above mentioned pre-incubated viruses. 24 hpi the cells were collected and the virus titer was determined by a plaque assay, as described above. Samples without treatment (Mock, negative control) and samples treated with Acyclovir (100 μmol/l as reference control) were handled in the same manner. The test was performed in two independent experiments, where each of the samples was tested in parallel wells.

HSV-1 strain ANGpath [4] = experiment: as above
Procedure: as §2, §3

[5] = cells treated 2 h before infection
[6] = cells treated 24 h before infection
[7] = virus incubated 2 h before infection
[8] = virus incubated 6 h before infection
[9] = virus incubated 8 h before infection
[10] = virus incubated 12 h before infection

Nc1nc2c(ncn2COCCO)c(=O)[nH]1 [ACV, Acyclovir]
Reduction in viral titer (HSV-1 strain Kupka [1]; cells treated 2 hpi): 4.52 log10 | Reduction in viral titer (HSV-1 strain Kupka [1]; cells treated 6 hpi): 3.43 log10 | Reduction in viral titer (HSV-1 strain Kupka [1]; [5]): 1.96 log10 | Reduction in viral titer (HSV-1 strain Kupka [1]; [6]): 1.96 log10 | Reduction in viral titer (HSV-1 strain Kupka [1]; cells treated during infection): 3.69 log10 | Reduction in viral titer (HSV-1 strain ANGpath [2]; cells treated 2 hpi): 2.81 log10 | Reduction in viral titer (HSV-1 strain ANGpath [2]; cells treated 6 hpi): 2.38 log10 | Reduction in viral titer (HSV-1 strain ANGpath [2]; [5]): 0.61 log10 | Reduction in viral titer (HSV-1 strain ANGpath [2]; [6]): 0.54 log10 | Reduction in viral titer (HSV-1 strain ANGpath [2]; cells treated during infection): 2.45 log10 | Reduction in viral titer (HSV-1 strain Kupka [3]; [7]): 4.62 log10 | Reduction in viral titer (HSV-1 strain Kupka [3]; [8]): 3.55 log10 | Reduction in viral titer (HSV-1 strain Kupka [3]; [9]): 5.17 log10 | Reduction in viral titer (HSV-1 strain Kupka [3]; [10]): 3.15 log10 | Reduction in viral titer (HSV-1 strain ANGpath [4]; [7]): 2.85 log10 | Reduction in viral titer (HSV-1 strain ANGpath [4]; [8]): 2.59 log10 | Reduction in viral titer (HSV-1 strain ANGpath [4]; [9]): 2.97 log10 | Reduction in viral titer (HSV-1 strain ANGpath [4]; [10]): 2.56 log10

Reference: patent publication US12661373B2, “Electrochemically activated salt solution” (AZAD Pharma AG, priority 2018, dated 2026)
